From ChEMBL document CHEMBL1201862, “PubChem BioAssay data set” (2004)
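These data come from cells grown in 96-well plates and exposed to compound for 48 hours at five concentrations. GI50 = concentration required for 50% inhibition of growth.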 Calls of active or inactive are those of the source. Cut-off read from the data, not from the text of the source: active = GI50 up to about 1.1 µM and inactive = higher.

Experiments:
Test in all cases: inhibition of tumour cell growth, NCI panel, 48 h
786-0 = tested on: 786-0
ACHN = tested on: ACHN
CAKI-1 = tested on: CAKI-1
EKVX = tested on: EKVX
HOP-92 = tested on: HOP-92
Malme-3M = tested on: Malme-3M
OVCAR-5 = tested on: OVCAR-5
OVCAR-8 = tested on: OVCAR-8
RXF 393 = tested on: RXF 393
SF-539 = tested on: SF-539
SK-MEL-28 = tested on: SK-MEL-28
SW-620 = tested on: SW-620
U-251 = tested on: U-251
UACC-257 = tested on: UACC-257
UO-31 = tested on: UO-31
HCT-116 = tested on: HCT-116
HL-60 = tested on: HL-60

Measured: GI50

COc1ccc(/C=C/COC(C)=O)cc1OC
inactive: 786-0 > 100 µM | ACHN > 100 µM | CAKI-1 > 100 µM | EKVX > 100 µM | HOP-92 86.5 µM | Malme-3M > 100 µM | OVCAR-5 > 100 µM | OVCAR-8 > 100 µM | RXF 393 > 100 µM | SF-539 > 100 µM | SK-MEL-28 > 100 µM | SW-620 > 100 µM | U-251 > 100 µM | UACC-257 > 100 µM | UO-31 > 100 µM

C[N+]1(C)C/C(=C/c2ccc(F)cc2)C(=O)/C(=C\c2ccc(F)cc2)C1
inactive: 786-0 49.4 µM | ACHN > 100 µM | EKVX > 100 µM | HCT-116 > 100 µM | HL-60 17.3 µM | HOP-92 > 100 µM | Malme-3M 42.1 µM | OVCAR-5 > 100 µM | OVCAR-8 47.2 µM | RXF 393 > 100 µM | SF-539 38.2 µM | SK-MEL-28 15 µM | SW-620 75.9 µM | U-251 16.4 µM | UACC-257 24.7 µM | UO-31 > 100 µM

O=[N+]([O-])c1cccc(-c2oc(/C=N/c3ccccc3)c([N+](=O)[O-])c2-c2cccc([N+](=O)[O-])c2)c1
inactive: 786-0 > 100 µM | ACHN > 100 µM | EKVX > 100 µM | HCT-116 > 100 µM | HL-60 > 100 µM | HOP-92 > 100 µM | Malme-3M > 100 µM | OVCAR-5 > 100 µM | OVCAR-8 > 100 µM | RXF 393 > 100 µM | SF-539 > 100 µM | SK-MEL-28 > 100 µM | SW-620 > 100 µM | U-251 > 100 µM | UACC-257 > 100 µM | UO-31 > 100 µM

C#CCn1c(=O)[nH]c(=O)c2cccnc21
inactive: 786-0 > 100 µM | ACHN > 100 µM | CAKI-1 > 100 µM | HCT-116 > 100 µM | HL-60 > 100 µM | HOP-92 > 100 µM | Malme-3M > 100 µM | OVCAR-5 > 100 µM | RXF 393 > 100 µM | SK-MEL-28 > 100 µM | SW-620 > 100 µM | U-251 > 100 µM | UACC-257 > 100 µM

Ic1ncnc2c1ncn2C1CCCO1 (centres undefined)
inactive: 786-0 > 100 µM | ACHN > 100 µM | CAKI-1 > 100 µM | EKVX > 100 µM | HCT-116 > 100 µM | HL-60 > 100 µM | HOP-92 > 100 µM | Malme-3M > 100 µM | OVCAR-5 > 100 µM | OVCAR-8 > 100 µM | SF-539 > 100 µM | SK-MEL-28 > 100 µM | SW-620 > 100 µM | U-251 > 100 µM | UACC-257 > 100 µM | UO-31 > 100 µM

COc1ccc2c3ccc4c(c3n(C)c2c1)C(=O)C=CC4=O
inactive: 786-0 17.9 µM | ACHN 20.7 µM | EKVX 72.8 µM | HCT-116 19.6 µM | HL-60 3.84 µM | HOP-92 14.1 µM | Malme-3M 30.5 µM | OVCAR-8 16.9 µM | RXF 393 18.4 µM | SF-539 20.8 µM | SK-MEL-28 84.9 µM | SW-620 16.4 µM | U-251 > 100 µM | UACC-257 29.2 µM | UO-31 20.5 µM

CCOC(=O)C(C)(C)Oc1ccc(/C=C/C(=O)c2ccc(Cl)cc2)cc1
inactive: 786-0 17.2 µM | ACHN > 10 µM | EKVX > 100 µM | HCT-116 16.4 µM | HL-60 24.5 µM | Malme-3M 18.4 µM | OVCAR-8 21.6 µM | RXF 393 15.3 µM | SF-539 19.5 µM | SK-MEL-28 19.4 µM | SW-620 13.9 µM | U-251 17.7 µM | UACC-257 18.4 µM | UO-31 35.2 µM

CC#CCC1CCC(OCC)=CC1=O (centres undefined)
inactive: 786-0 > 100 µM | ACHN > 100 µM | CAKI-1 > 100 µM | EKVX > 100 µM | HCT-116 > 100 µM | HL-60 > 100 µM | HOP-92 > 100 µM | OVCAR-5 > 100 µM | OVCAR-8 > 100 µM | RXF 393 > 100 µM | SF-539 > 100 µM | SK-MEL-28 > 100 µM | SW-620 > 100 µM | U-251 > 100 µM | UACC-257 > 100 µM | UO-31 > 100 µM

COc1ccc(Br)c(C(=O)N2CCc3ccccc32)c1N
inactive: 786-0 42.4 µM | ACHN 49 µM | HCT-116 42.2 µM | HL-60 40.6 µM | HOP-92 > 100 µM | Malme-3M 66.4 µM | OVCAR-5 > 100 µM | OVCAR-8 32.3 µM | RXF 393 55.2 µM | SF-539 27.5 µM | SK-MEL-28 52.7 µM | SW-620 49.1 µM | U-251 33.9 µM | UACC-257 29.9 µM | UO-31 33.8 µM

CC(C)=CC(=O)C/C(=N\NC(N)=S)C(=O)Nc1ccc(Cl)cc1
inactive: 786-0 > 100 µM | ACHN > 100 µM | CAKI-1 > 100 µM | EKVX > 100 µM | HCT-116 > 100 µM | HL-60 > 100 µM | Malme-3M > 100 µM | OVCAR-5 > 100 µM | OVCAR-8 > 100 µM | RXF 393 > 100 µM | SF-539 > 100 µM | SK-MEL-28 > 100 µM | SW-620 > 100 µM | U-251 > 100 µM | UACC-257 > 100 µM | UO-31 > 100 µM

CC(C)(C)C(=O)/C=C/c1ccc(Oc2ccccc2)cc1
inactive: 786-0 19.4 µM | ACHN 17.5 µM | EKVX 20 µM | HCT-116 12.1 µM | Malme-3M 19.2 µM | OVCAR-5 19.3 µM | OVCAR-8 30.7 µM | RXF 393 27.4 µM | SF-539 > 10 µM | SK-MEL-28 32 µM | SW-620 17.3 µM | U-251 14.8 µM | UACC-257 18.7 µM | UO-31 15.8 µM

CC(=O)n1cc(CC(C)O)c(=O)[nH]c1=O (centres undefined)
inactive: 786-0 > 100 µM | ACHN > 100 µM | CAKI-1 > 100 µM | EKVX > 100 µM | HCT-116 > 100 µM | HL-60 > 100 µM | OVCAR-5 > 100 µM | OVCAR-8 > 100 µM | SF-539 > 100 µM | SK-MEL-28 > 100 µM | SW-620 > 100 µM | U-251 > 100 µM | UACC-257 > 100 µM | UO-31 > 100 µM

CC(C)=CCCC1(C)C=Cc2c(c(C)cc3c2[nH]c2cc(O)ccc23)O1 (centres undefined)
inactive: 786-0 > 25 µM | ACHN > 25 µM | HCT-116 > 25 µM | HL-60 22.5 µM | HOP-92 > 25 µM | Malme-3M > 25 µM | OVCAR-5 > 25 µM | OVCAR-8 > 25 µM | RXF 393 > 25 µM | SF-539 > 25 µM | SK-MEL-28 > 25 µM | SW-620 > 25 µM | U-251 > 25 µM | UO-31 > 25 µM
